In patent US9364474B2, “Method for treatment of neurologic dysfunction” (MedDEV, Inc., priority 2004, dated 2016):

Key:
MAO-A = details: Egashira et al (1996); Gnerre et al (2001); cited from earlier work
MAO-B = target: T1, MAO-B (Homo sapiens, UniProt P27338); details: Egashira et al (1996); Gnerre et al (2001); cited from earlier work
T1 sequence (P27338 1-520): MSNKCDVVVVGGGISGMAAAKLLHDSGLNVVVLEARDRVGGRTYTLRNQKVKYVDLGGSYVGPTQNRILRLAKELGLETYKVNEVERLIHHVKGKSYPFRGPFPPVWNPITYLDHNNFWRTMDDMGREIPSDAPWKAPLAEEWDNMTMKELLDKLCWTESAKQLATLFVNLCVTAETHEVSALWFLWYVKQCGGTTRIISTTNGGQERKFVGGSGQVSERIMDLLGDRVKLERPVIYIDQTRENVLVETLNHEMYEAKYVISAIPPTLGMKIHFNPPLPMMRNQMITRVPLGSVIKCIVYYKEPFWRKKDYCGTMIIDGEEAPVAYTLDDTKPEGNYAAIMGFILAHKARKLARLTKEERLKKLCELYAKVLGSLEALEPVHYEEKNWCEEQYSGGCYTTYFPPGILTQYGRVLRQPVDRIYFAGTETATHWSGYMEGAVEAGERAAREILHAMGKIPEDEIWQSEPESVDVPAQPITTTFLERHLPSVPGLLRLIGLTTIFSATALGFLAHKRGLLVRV

patient with Autism = test: Case examples: patients with Autism (ASD), transdermal reserpine (with prior medication history); format: in vivo, human; details: for success of prior treatments: ASD Example Three: person, prior treatments tried
Method: The treatment composition is suitably applied in a single daily dose, e.g., 0.01 mg of the MAO-A agonist in 0.05 ml of spray solution applied once every morning.
Prior to administration of the present invention (transdermal reserpine), the patient's parents were provided with an informed consent documenting the potential risks, benefits and alternatives to this treatment. The patient was started on a dose of Reserpine at a 4× dilution resulting in a total dose of 0.01 mg. […] They were also given approximately 1400 mg of Calcium every morning.

[1] = system: patient diagnosed with chronic schizophrenia; test: Case example: patient with chronic schizophrenia, transdermal reserpine spray (with prior medication history); format: in vivo, human; details: prior treatment
[2] = system: patient suffering from depression; details: Depression Example Four; taking nortriptyline
Method: The treatment composition is suitably applied in a single daily dose, e.g., 0.01 mg of the MAO-A agonist in 0.05 ml of transdermal cream applied once every morning. Caffeine may also be included in the composition to compensate for the anti-hypertensive effect of the preferred reserpine; the caffeine may suitably be included in an amount from about 50-100 mg/dose.
Treatment was in the form of 0.01 mg of reserpine per 0.05 ml of transdermal cream, applied transdermally once a day in the morning.
The treatment consisted of 0.01 mg of reserpine per 0.05 ml of cream, applied transdermally by rubbing the cream into the skin once a day in the morning.
The treatment consisted of 0.01 mg of the reserpine per 0.05 ml of cream, applied transdermally by rubbing the cream into the skin once a day in the morning.
The patient discontinued the use of nortriptyline and the same day started the treatment of the present invention, using 0.01 mg of the reserpine per 0.05 ml cream, applied transdermally by rubbing the cream into the skin once a day in the morning.
The patient then started the treatment of the present invention, using 0.01 mg of the MAO-A activity stimulator (reserpine) per 0.05 ml cream, applied transdermally by rubbing the cream into the skin once a day in the morning.

aldehyde dehydrogenase = details: literature; cited from earlier work
[3] = system: ethanol-preferring laboratory hamsters; details: cited from earlier work

SMILES | activity towards MAO-A (MAO-A) | activity towards MAO-B relative to MAO-A (MAO-B) | other results
CNCCC(Oc1ccc(C(F)(F)F)cc1)c1ccccc1 (stereo not drawn) [fluoxetine] | inhibitory activity | clearly more potent selectivity for MAO-B | 
CN1Cc2c(N)cccc2C(c2ccccc2)C1 (stereo not drawn) [nomifensine] | inhibitory activity | clearly more potent selectivity for MAO-B | 
CN(C)CCCN1c2ccccc2CCc2ccc(Cl)cc21 [clomipramine] | inhibitory activity | clearly more potent selectivity for MAO-B | 
CCCC(CCC)C(=O)O [depakote] |  |  | success of prior treatments (patient with Autism): none to minimal success; side effects of prior medication ([1]; Schizophrenia Example One: person, discontinued): extremely lethargic and obese
OCCOCCN1CCN(C2=Nc3ccccc3Sc3ccccc32)CC1 [Seroquel] |  |  | success of prior treatments (patient with Autism): none to minimal success
CN(C)C/C=C(/c1ccc(Br)cc1)c1cccnc1 [zimeldine] | inhibitory activity | clearly more potent selectivity for MAO-B | 
CNCCC=C1c2ccccc2CCc2ccccc21 [nortriptyline] | inhibitory activity | clearly more potent selectivity for MAO-B | symptoms persisting despite prior medication [2]: Decreased energy, fatigue • Early morning awakening
COc1ccc2[nH]cc(CCNC(C)=O)c2c1 [melatonin] |  |  | success of prior treatments (patient with Autism): none to minimal success
COCCCC/C(=N\OCCN)c1ccc(C(F)(F)F)cc1 [fluvoxamine] | inhibitory activity | clearly more potent selectivity for MAO-B | 
O=C1CCc2ccc(OCCCCN3CCN(c4cccc(Cl)c4Cl)CC3)cc2N1 [Abilify] |  |  | tolerability and efficacy of prior medication ([1]; Schizophrenia Example One): tolerated better but still had many symptoms unresolved
O=C1CC[C@@]2(O)[C@H]3Cc4ccc(O)c5c4[C@@]2(CCN3CC2CC2)[C@H]1O5 [naltrexone] |  |  | success of prior treatments (patient with Autism): none to minimal success
CN(C)CCCN1c2ccccc2CCc2ccccc21 [imipramine] | inhibitory activity | clearly more potent selectivity for MAO-B | 
CN(C)CCC=C1c2ccccc2CCc2ccccc21 [amitriptyline] | inhibitory activity | clearly more potent selectivity for MAO-B | 
CNCCCC12CCC(c3ccccc31)c1ccccc12 [maprotiline] | inhibitory activity | clearly more potent selectivity for MAO-B | 
O=c1c(-c2ccc(O)cc2)coc2cc(O[C@@H]3O[C@H](CO)[C@@H](O)[C@H](O)[C@H]3O)ccc12 [daidzin] |  |  | effect on aldehyde dehydrogenase (aldehyde dehydrogenase): inhibits aldehyde dehydrogenase; effect on ethanol intake [3]: suppress ethanol intake
OCCOCCN1CCN(C2=Nc3ccccc3Sc3ccccc32)CC1 [quetiapine] |  |  | functional benefit of prior medication (patient with Autism; ASD Example One, prior trials at therapeutic doses, only quetiapine of six medications): functional improvements
CN(C)CCC=C1c2ccccc2COc2ccccc21 [doxepine] | inhibitory activity | clearly more potent selectivity for MAO-B | 
COC(=O)C(c1ccccc1)C1CCCCN1 (stereo not drawn) [Ritalin] |  |  | success of prior treatments (patient with Autism): none to minimal success
CCOc1ccccc1OCC1CNCCO1 (stereo not drawn) [viloxazine] | inhibitory activity | clearly more potent selectivity for MAO-B | 
